The text below walks through data of patent US5061791A, “4-bromo-4'-demethylepipodophyllotoxin derivatives” (Warner-Lambert Company, priority 1989, dated 1991).

Where two headings read alike, the source gives them in different places.

The test system of data set [1] is tumors, including small-cell carcinoma of the lung, acute leukemia, malignant lymphoma, and testicular cancer. Conditions: background art; cited from earlier work.
Data set [2] deals with P388 murine leukemia cell line. The experiment in a line: In vivo antineoplastic test, P388 leukemia in mice. Further details: species or system murine (male and female CD2Fl mice). The procedure: (§1) Compounds of the present invention are tested for antineoplastic activity by the following in vitro L1210 and in vivo P388 leukemia protocols:
In Vivo Antineoplastic Test Protocol
The activities of compounds of the present invention are tested against the P388 murine leukemia cell line in vivo. This protocol tests the effectiveness of a given compounds to inhibit the growth of the transplanted P388 murine leukemia cell line in male and female CD2Fl mice. Each test included a group of six or seven mice. The test is described in detail in Cancer Chemotherapy Reports, Part 3, Volume 3, pp 1-85 (1972).
The tumor cell line is transplanted into the test animals by intraperitoneal injection of ascites fluid containing the cell line. […]
A compound is designated "toxic" if, at a given dose, no animal survives after four days following first injection of the test compound. A ratio of survival time for treated animals (T) animals relative to control (C) animals is calculated for each nontoxic dose. A criterion for efficacy is a ratio of (T/C)×100 equal to or greater than 125.

The conditions of data set [3]: background art; cited from earlier work.
Data set [4] has as its system L1210 murine leukemia cell line. Kind of data set: In vitro antineoplastic test, L1210 leukemia (MTT, 3 days). The data set is classed as cell-based. Conditions: Mus musculus, read-out: L1210 Leukemia In Vitro Mean IC50. The protocol:
as §1
In Vitro Antineoplastic Test Protocol
The activities of compounds of the present invention are tested against the L1210 murine leukemia cell line in vitro.
[…] cells are grown in RPMI 1640 culture medium containing 10% fetal bovine serum and gentamicin (50 micrograms per milliliter). A stock solution of the test compound is prepared in the appropriate solvent and further diluted in culture medium. Sequential twofold dilutions of drug are performed with 50 microliter transfers in 96-well microliter plates followed by the addition of 50 microliters of cell suspension containing 4×10^4 cells per milliliter.
After incubation at 37° C. in a humidified atmosphere of 5% CO2 in air for three days, 10 microliters of MTT [5 milligrams/milliliter 3-(4,5-dimethyl-2-thiazol)-2,5-diphenyltetrazolium bromide]are added to each well and the plates incubated at 37° C. for 3 hours before the addition of 100 microliters of 0.15 N HCl in isopropanol. Absorbance is read within one hour on a Dynatech MR 600 plate reader at 2 test wavelength of 570 nm and a reference wavelength of 630 nm. A microcomputer program converts optical density readings to percent growth and determines IC50 values (the amount of drug required to reduce absorbance to 50% of untreated controls) using nonlinear regression analysis.

Where [5] appears, read: Mus musculus, P388, ip, 120 h, read-out: P388 Leukemia % T/C (survival time treated/control x 100).

For the compound `COc1cc([C@@H]2c3cc4c(cc3[C@@H](O[C@@H]3O[C@@H]5CO[C@@H](C)O[C@H]5[C@H](O)[C@H]3O)[C@H]3COC(=O)[C@H]23)OCO4)cc(OC)c1O` [Etoposide, etoposide, reference compound], the “antineoplastic activity (in words)” value in data set [1] was “exhibited antineoplastic activity against certain tumors, including small-cell carcinoma of the lung, acute leukemia, malignant lymphoma, and testicular cancer”. In addition, the response vs control in vivo at 40 mg/kg in data set [2] (Mus musculus, P388, read-out: P388 Leukemia % T/C (survival time treated/control x 100)) stood at 295%. Besides, in data set [2] (P388, 40 mg/kg/inj, once daily on Days 1, 5, and 9), the 60-days survivors was 4/10. Besides, the “toxicity (in words)” value in data set [3] is on record as “reduced toxicity”.
Regarding `COc1cc([C@@H]2c3cc4c(cc3[C@@H](OCCN(C)CCO)[C@H]3COC(=O)[C@H]23)OCO4)cc(OC)c1O` [Example 2], the response vs control in vivo at 0.38 mg/kg in data set [2] (setting [5]) was found to be 170%. Besides, the IC50 – broadly, the concentration that inhibits the measured activity by half – in data set [4] (L1210, 72 h) was determined as 103 nM.
With `COc1cc([C@@H]2c3cc4c(cc3[C@@H](OCCN3CCOCC3)[C@H]3COC(=O)[C@H]23)OCO4)cc(OC)c1O` [Example 3, [5R-(5α,5aβ,8aα,9β)]-5,8,8a,9-tetrahydro-5-(4-hydroxy-3,5-dimethoxyphenyl)-9-[2-(4morpholinyl)ethoxy]furo[3',4':6,7]naphtho[2,3-d]-1,3-dioxol-6(5aH)-one], in data set [2] (setting [5]), the response vs control in vivo at 3.1 mg/kg was determined as 179%. Also, the IC50 in data set [4] (L1210, 72 h) was 235 nM.
Turning to `COc1cc([C@@H]2c3cc4c(cc3[C@@H](OCCN(CCO)CCO)[C@H]3COC(=O)[C@H]23)OCO4)cc(OC)c1O` [Example 4], the response vs control in vivo at 1.5 mg/kg in data set [2] (setting [5]) came out at 160%. Moreover, the IC50 in data set [4] (L1210, 72 h) is 336 nM.
Regarding `CCN(CC)CCO[C@@H]1c2cc3c(cc2[C@@H](c2cc(OC)c(O)c(OC)c2)[C@H]2C(=O)OC[C@@H]21)OCO3` [Example 5, [5R-(5α,5aβ,8aα,9β)]-9-[2-(diethylamino)ethoxy]-5,8,8a,9-tetrahydro-5-(4-hydroxy-3,5-dimethoxyphenyl)furo[3',4':6,7]naphtho[2,3-d]-1,3-dioxol-6(5aH)-one], the response vs control in vivo at 3.1 mg/kg in data set [2] (setting [5]) was determined as 140%. Besides, the IC50 in data set [4] (L1210, 72 h) came to 198 nM.
As for `CCN(CC)CCCO[C@@H]1c2cc3c(cc2[C@@H](c2cc(OC)c(O)c(OC)c2)[C@H]2C(=O)OC[C@@H]21)OCO3` [Example 6, [5R-(5α,5aβ,8aα,9β)]-9-3-[(diethylamino)propoxy]-5,8,8a,9-tetrahydro-5-(4-hydroxy-3,5-dimethoxyphenyl)furo[3',4':6,7]naphtho[2,3-d]-1,3-dioxol-6(5aH)-one], the response vs control in vivo at 2 mg/kg in data set [2] (setting [5]) came to 137%. In addition, the IC50 in data set [4] (L1210, 72 h) came to 250 nM.
For `CCN(CC)CCOCCO[C@@H]1c2cc3c(cc2[C@@H](c2cc(OC)c(O)c(OC)c2)[C@H]2C(=O)OC[C@@H]21)OCO3` [Example 7, [5R-(5α,5aβ,8aα,9β)]-9-[2-[2-(diethyl-amino)ethoxy]ethoxy]-5,8,8a,9-tetrahydro-5-(4-hydroxy-3,5-dimethoxyphenyl)furo[3',4':6,7]naphtho[2,3-d]-1,3-dioxol-6(5aH)-one], the response vs control in vivo at 50 mg/kg in data set [2] (setting [5]) worked out at 170%. The IC50 in data set [4] (L1210, 72 h) was 253 nM.
For `COc1cc([C@@H]2c3cc4c(cc3[C@@H](OCCN3CCCC3=O)[C@H]3COC(=O)[C@H]23)OCO4)cc(OC)c1O` [Example 8, [5S-(5α,5aβ,8aα,9β)]-1-[2-[[5,5a,6,8,8a,9-hexahydro-9-(4-hydroxy-3,5-dimethoxyphenyl)-8-oxofuro-[3',4':6,7]naphtho[2,3-d]-1,3-dioxol-5-yl]oxy]ethyl]-2-pyrrolidinone], in data set [2] (setting [5]), the response vs control in vivo at 100 mg/kg came out at 167%. In data set [4] (L1210, 72 h), the IC50 turned out to be 500 nM.
With `COc1cc([C@@H]2c3cc4c(cc3[C@@H](SCCN3CCOCC3)[C@H]3COC(=O)[C@H]23)OCO4)cc(OC)c1O` [Example 9, [5R-(5α,5aβ,8aα,9β)]-5,8,8a,9-tetrahydro-5-(4-hydroxy-3,5-methoxyphenyl)-9-[[2-(4-morpholinyl)ethyl]thio]furo[3',4':6,7]naphtho[2,3-d]1,3-dioxol-6(5aH)-one], the response vs control in vivo at 50 mg/kg in data set [2] (setting [5]) is 127%. Besides, the concentration for half-maximal inhibition (IC50) in data set [4] (L1210, 72 h) was determined as 1390 nM.
`COc1cc([C@@H]2c3cc4c(cc3[C@@H](SCC(O)CO)[C@H]3COC(=O)[C@H]23)OCO4)cc(OC)c1O` (stereo partly drawn) [Example 10]: the response vs control in vivo at 12.5 mg/kg in data set [2] (setting [5]) is 114%. Also, the IC50 in data set [4] (72 h, L1210 cells, 3 days at 37° C., MTT) was 767 nM.
For the compound `COc1cc([C@@H]2c3cc4c(cc3[C@@H](S[C@@H]3O[C@@H]5COC(C)O[C@H]5[C@H](O)[C@H]3O)[C@H]3COC(=O)[C@H]23)OCO4)cc(OC)c1O` (stereo partly drawn) [Example 11, (5α,5aα,8aα,9β)-9-[(4,6-O-ethylidene-β-D-glucopyranosyl)thio]-5,8,8a,9-tetrahydro-5-(4-hydroxy-3,5-dimethoxyphenyl)furo[3',4':6,7]naphtho[2,3-d]-1,3-dioxol-6(5aH)-one], the response vs control in vivo at 50 mg/kg in data set [2] (setting [5]) is 182%. Besides, the 40-day survivors in data set [2] (P388, 50 mg/kg/inj, intraperitoneal once daily for five days) is listed as 3/6. Besides, in data set [2] (conclusion from the table (L1210 and P388)), the “antitumor activity (in words)” value was “highly active”. Besides, in data set [4] (L1210, 72 h), the IC50 stood at 305 nM.
With `COc1cc([C@@H]2c3cc4c(cc3[C@H](O)[C@H]3COC(=O)[C@H]23)OCO4)cc(OC)c1OC` [podophyllotoxin], in data set [1], the “antineoplastic activity (in words)” value is recorded as “well documented”. Also, the “toxicity (in words)” value in data set [3] was “extremely toxic”.
For the compound `COc1cc([C@@H]2c3cc4c(cc3[C@@H](O[C@@H]3O[C@@H]5CO[C@@H](c6cccs6)O[C@H]5[C@H](O)[C@H]3O)[C@H]3COC(=O)[C@H]23)OCO4)cc(OC)c1O` [teniposide], the “antineoplastic activity (in words)” value in data set [1] was “exhibited antineoplastic activity against certain tumors, including small-cell carcinoma of the lung, acute leukemia, malignant lymphoma, and testicular cancer”. Also, in data set [3], the “toxicity (in words)” value is reported as “reduced toxicity”.
